From PubChem BioAssay (NCI)
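Each compound was tested at five concentrations against cells in 96-well plates for 48 hours. GI50 marks 50% less growth. TGI: concentration producing complete growth inhibition.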

These compounds were tested on HCT-116 colon (assay: DTP human tumour cell line panel, 48 h).
`CNCC#Cc1c(F)ccc2c1/C(=C/c1[nH]ccc1OC)C(=O)N2` was tested, and the GI50 was 0.0827 µM and the TGI was 3.1 µM.
`COc1cc(-n2cc(-c3ccc(F)cc3)[nH]c2=O)cc(OC)c1OC` showed a GI50 of over 100 µM and a TGI of over 100 µM.
`Cn1cc(C2=C(c3cn(CCCCO)c4ccccc34)C(=O)NC2=O)c2ccccc21` was tested, and the GI50 was 7.63 µM and the TGI was over 25 µM.
Compound `C1CN2CCN3CCN4CCN1[P+]243` has a TGI of over 100 µM.

What follows are compounds tested on HOP-18 NSCLC (assay: DTP human tumour cell line panel, 48 h).
With `COc1cc(NCc2ccc3nc(N)nc(N)c3c2C)cc(OC)c1OC` (tested in a mixture with another compound) the TGI was 146 µM.
`O=C1/C(=C/c2ccc3c(c2)OCO3)SC2C=Nc3ccccc3N12` (configuration not stated) showed a TGI of over 100 µM.
For `CCOc1ccc(NC(=O)C(=O)CC(=O)c2c(C)n([O-])c3ccccc3[n+]2=O)cc1`, the TGI was over 100 µM.
In the case of `CC(=O)OC12C=CC(=O)N1c1ccccc1C(=O)O2` (configuration not stated), the TGI is reported as over 100 µM.
Compound `Cc1cc(Cl)ccc1NC(=O)C(=O)Cc1nc2ccccc2o1` has a TGI of over 100 µM.
With `OCC1OC(c2nc(C3=NCCCN3)cs2)C(O)C1O` (configuration not stated) the TGI was over 100 µM.
`CCC(C)COC(=O)c1ccc(N=Cc2ccc(C=Nc3ccc(C(=O)OCC(C)CC)cc3)cc2)cc1` (configuration not stated) showed a TGI of over 100 µM.
With `Cc1cc(N(CCC#N)CCC#N)ccc1N=Nc1ccc(C(=O)O)cc1` the TGI was over 100 µM.
In the case of `CN(C)CC1CCCC/C1=N/OC(=O)c1ccc(Cl)cc1` (configuration not stated), the TGI is reported as over 100 µM.
In the case of `N#CC(C(=O)C(=O)C(C#N)c1ccc(Br)cc1)c1ccc(Br)cc1` (configuration not stated), the TGI is reported as 25.9 µM.
For `CCOC(=O)C(=[N+]=[N-])[Si](C)(C)C`, the TGI was over 100 µM.
`CCCc1nc(NC#N)nc(C(=O)Nc2ccccc2)c1CC` showed a TGI of over 100 µM.
For `O=C(CCc1n[nH]c(=S)o1)Nc1ccccc1C(F)(F)F`, the TGI was over 100 µM.
`COc1cc2c(c(OC)c1OC)-c1ccc(SC)c(=O)cc1C(NC=O)CC2` (configuration not stated) gave a TGI of over 100 µM.
In the case of `Cc1ccc(NC(=O)CCc2cc(C(C)(C)C)nc(=S)[nH]2)cc1C`, the TGI is reported as over 100 µM.
With `Cc1[nH]c2ccccc2c1C(=O)/C=C/c1ccccc1O` the TGI was over 100 µM.
With `O=C(Nc1nc(=S)c2c(ncn2CCOC(=O)c2ccccc2)[nH]1)c1ccccc1` the TGI was over 100 µM.
In the case of `CCOc1ccc(NC(=O)CC#N)cc1`, the TGI is reported as over 100 µM.
In the case of `O=C(/C=C/c1cccc2ccccc12)c1ccccc1Cl`, the TGI is reported as 33.3 µM.
With `Cc1ccc(/C=C/C(=O)c2sc(-c3nc(C)c(C(=O)/C=C/c4ccc(C)cc4)s3)nc2C)cc1` the TGI was over 100 µM.
Compound `O=C1/C(=C/c2ccc(Cl)cc2)CCC1CCN1CCOCC1` (configuration not stated) has a TGI of over 100 µM.
`O=c1ccn([C@H]2CSC[C@@H](CO)C2)c(=O)[nH]1` showed a TGI of over 100 µM.
For `C1CN2CCN3CCN4CCN1[P+]243`, the TGI was over 100 µM.

What follows are compounds tested on KM20L2 colon (assay: DTP human tumour cell line panel, 48 h).
`COc1cc(NCc2ccc3nc(N)nc(N)c3c2C)cc(OC)c1OC` (tested in a mixture with another compound) showed a TGI of 48.5 µM.
`COc1ccc(NC(=O)/C(Cc2cc(=O)oc3cc(O)ccc23)=N\NC(C)(C)C)c(OC)c1` gave a TGI of over 100 µM.
For `O=C1/C(=C/c2ccc3c(c2)OCO3)SC2C=Nc3ccccc3N12` (configuration not stated), the TGI was over 100 µM.
Work on `CCOc1ccc(NC(=O)C(=O)CC(=O)c2c(C)n([O-])c3ccccc3[n+]2=O)cc1` yielded a TGI of over 100 µM.
In the case of `CC(=O)OC12C=CC(=O)N1c1ccccc1C(=O)O2` (configuration not stated), the TGI is reported as over 100 µM.
`Cc1cc(Cl)ccc1NC(=O)C(=O)Cc1nc2ccccc2o1` was tested, and the TGI was over 100 µM.
In the case of `OCC1OC(c2nc(C3=NCCCN3)cs2)C(O)C1O` (configuration not stated), the TGI is reported as over 100 µM.
In the case of `CCC(C)COC(=O)c1ccc(N=Cc2ccc(C=Nc3ccc(C(=O)OCC(C)CC)cc3)cc2)cc1` (configuration not stated), the TGI is reported as over 100 µM.
`CN(C)CC1CCCC/C1=N/OC(=O)c1ccc(Cl)cc1` (configuration not stated) was tested, and the TGI was over 100 µM.
In the case of `N#CC(C(=O)C(=O)C(C#N)c1ccc(Br)cc1)c1ccc(Br)cc1` (configuration not stated), the TGI is reported as 27.7 µM.
Compound `COc1cccc(C2=NC(C(C)C)CO2)c1` (configuration not stated) has a TGI of over 100 µM.
For `CCOC(=O)C(=[N+]=[N-])[Si](C)(C)C`, the TGI was over 100 µM.
Work on `CCCc1nc(NC#N)nc(C(=O)Nc2ccccc2)c1CC` yielded a TGI of over 100 µM.
Work on `O=C(CCc1n[nH]c(=S)o1)Nc1ccccc1C(F)(F)F` yielded a TGI of over 100 µM.
`COc1cc2c(c(OC)c1OC)-c1ccc(SC)c(=O)cc1C(NC=O)CC2` (configuration not stated) gave a TGI of under 0.01 µM.
`Cc1ccc(NC(=O)CCc2cc(C(C)(C)C)nc(=S)[nH]2)cc1C` was tested, and the TGI was over 100 µM.
Compound `Cc1[nH]c2ccccc2c1C(=O)/C=C/c1ccccc1O` has a TGI of over 100 µM.
With `O=C(Nc1nc(=S)c2c(ncn2CCOC(=O)c2ccccc2)[nH]1)c1ccccc1` the TGI was over 100 µM.
`COc1ccc(CC2NCCc3c2[nH]c2ccccc32)cc1` (configuration not stated) showed a TGI of over 100 µM.
With `CCOc1ccc(NC(=O)CC#N)cc1` the TGI was over 100 µM.
`O=C(/C=C/c1cccc2ccccc12)c1ccccc1Cl` was tested, and the TGI was 25.6 µM.
With `Cc1ccc(/C=C/C(=O)c2sc(-c3nc(C)c(C(=O)/C=C/c4ccc(C)cc4)s3)nc2C)cc1` the TGI was over 100 µM.
With `O=C1/C(=C/c2ccc(Cl)cc2)CCC1CCN1CCOCC1` (configuration not stated) the TGI was over 100 µM.
In the case of `CCC[CH2][Sn]([Cl])([CH2]CCC)[CH2]CCC`, the GI50 is reported as 0.136 µM and the TGI is reported as 0.295 µM.
`O=c1ccn([C@H]2CSC[C@@H](CO)C2)c(=O)[nH]1` showed a TGI of over 100 µM.
Compound `C1CN2CCN3CCN4CCN1[P+]243` has a TGI of over 100 µM.

What follows are compounds tested on LOX IMVI melanoma (assay: DTP human tumour cell line panel, 48 h).
`COc1cc(NCc2ccc3nc(N)nc(N)c3c2C)cc(OC)c1OC` (tested in a mixture with another compound) was tested, and the GI50 was 0.000242 µM and the TGI was 38.3 µM.
`COc1ccc(NC(=O)/C(Cc2cc(=O)oc3cc(O)ccc23)=N\NC(C)(C)C)c(OC)c1` showed a TGI of over 100 µM.
`CCOc1ccc(NC(=O)C(=O)CC(=O)c2c(C)n([O-])c3ccccc3[n+]2=O)cc1` was tested, and the TGI was over 100 µM.
`CC(=O)OC12C=CC(=O)N1c1ccccc1C(=O)O2` (configuration not stated) was tested, and the TGI was over 100 µM.
Work on `Cc1cc(Cl)ccc1NC(=O)C(=O)Cc1nc2ccccc2o1` yielded a TGI of over 100 µM.
With `OCC1OC(c2nc(C3=NCCCN3)cs2)C(O)C1O` (configuration not stated) the TGI was over 100 µM.
Work on `CCC(C)COC(=O)c1ccc(N=Cc2ccc(C=Nc3ccc(C(=O)OCC(C)CC)cc3)cc2)cc1` (configuration not stated) yielded a TGI of over 100 µM.
With `Cc1cc(N(CCC#N)CCC#N)ccc1N=Nc1ccc(C(=O)O)cc1` the TGI was over 100 µM.
Compound `CN(C)CC1CCCC/C1=N/OC(=O)c1ccc(Cl)cc1` (configuration not stated) has a TGI of over 100 µM.
`N#CC(C(=O)C(=O)C(C#N)c1ccc(Br)cc1)c1ccc(Br)cc1` (configuration not stated) showed a TGI of 23.6 µM.
`COc1cccc(C2=NC(C(C)C)CO2)c1` (configuration not stated) was tested, and the TGI was over 100 µM.
Work on `CCOC(=O)C(=[N+]=[N-])[Si](C)(C)C` yielded a TGI of over 100 µM.
`CCCc1nc(NC#N)nc(C(=O)Nc2ccccc2)c1CC` was tested, and the TGI was over 100 µM.
With `COc1cc2c(c(OC)c1OC)-c1ccc(SC)c(=O)cc1C(NC=O)CC2` (configuration not stated) the TGI was over 41.1 µM.
`Cc1ccc(NC(=O)CCc2cc(C(C)(C)C)nc(=S)[nH]2)cc1C` gave a TGI of over 100 µM.
`Cc1[nH]c2ccccc2c1C(=O)/C=C/c1ccccc1O` was tested, and the TGI was over 100 µM.
Compound `O=C(Nc1nc(=S)c2c(ncn2CCOC(=O)c2ccccc2)[nH]1)c1ccccc1` has a TGI of over 100 µM.
`COc1ccc(CC2NCCc3c2[nH]c2ccccc32)cc1` (configuration not stated) gave a TGI of over 100 µM.
Compound `CCOc1ccc(NC(=O)CC#N)cc1` has a TGI of over 100 µM.
`Cc1ccc(/C=C/C(=O)c2sc(-c3nc(C)c(C(=O)/C=C/c4ccc(C)cc4)s3)nc2C)cc1` was tested, and the TGI was over 100 µM.
`O=C1/C(=C/c2ccc(Cl)cc2)CCC1CCN1CCOCC1` (configuration not stated) gave a TGI of over 100 µM.
`CC[C@H]1[C@@H]2C=C[C@@H]3[C@H]4C/C=C\C(=O)NCCC[C@@H]5NC(=O)/C(=C(O)/C=C/[C@@H]4C[C@@H]3[C@H]2C[C@H]1C)C5=O` showed a GI50 of 0.662 µM and a TGI of 1.96 µM.
`O=C1Nc2ccccc2/C1=N\[O-].O=C1Nc2ccccc2/C1=N\[O-].[Cu+2]` gave a GI50 of over 100 µM and a TGI of over 100 µM.
`CN1C(=O)N(C)C2C1NN=c1s/c(=C\c3ccc(Cl)cc3Cl)c(=O)n12` (configuration not stated) was tested, and the GI50 was 0.159 µM and the TGI was over 100 µM.
`CCC[CH2][Sn]([Cl])([CH2]CCC)[CH2]CCC` was tested, and the GI50 was 0.109 µM and the TGI was 0.234 µM.
Compound `Cc1ccc(NC(=O)CC2CC2)cc1-c1ccc(C(=O)NCC2CC2)cc1` has a GI50 of over 25 µM and a TGI of over 25 µM.
`CCOC(=O)Nc1ccc(C)c(NC(=O)OCC)c1` gave a TGI of over 100 µM.
`O=c1ccn([C@H]2CSC[C@@H](CO)C2)c(=O)[nH]1` gave a TGI of over 100 µM.
For `CNCC#Cc1c(F)ccc2c1/C(=C/c1[nH]ccc1OC)C(=O)N2`, the GI50 was 0.142 µM and the TGI was 2.18 µM.
`COc1cc(-n2cc(-c3ccc(F)cc3)[nH]c2=O)cc(OC)c1OC` was tested, and the GI50 was over 100 µM and the TGI was over 100 µM.
For `Cn1cc(C2=C(c3cn(CCCCO)c4ccccc34)C(=O)NC2=O)c2ccccc21`, the GI50 was 5.62 µM and the TGI was over 25 µM.
`C1CN2CCN3CCN4CCN1[P+]243` gave a TGI of over 100 µM.

The compounds below were run on MOLT-4 leukemia (assay: DTP human tumour cell line panel, 48 h).
`COc1cc(NCc2ccc3nc(N)nc(N)c3c2C)cc(OC)c1OC` (tested in a mixture with another compound) gave a TGI of 46.7 µM.
`COc1ccc(NC(=O)/C(Cc2cc(=O)oc3cc(O)ccc23)=N\NC(C)(C)C)c(OC)c1` was tested, and the TGI was over 100 µM.
With `O=C1/C(=C/c2ccc3c(c2)OCO3)SC2C=Nc3ccccc3N12` (configuration not stated) the TGI was over 100 µM.
For `CCOc1ccc(NC(=O)C(=O)CC(=O)c2c(C)n([O-])c3ccccc3[n+]2=O)cc1`, the TGI was over 100 µM.
